Test results as given in patent US20240083861A1, “HSD17B13 INHIBITORS AND USES THEREOF” (FL2022-001, Inc., priority 2020, published 2024).

Biological target: T1, Recombinant human HSD17B13 enzyme (Homo sapiens, UniProt Q7Z5P4)
T1 sequence (Q7Z5P4 20-300): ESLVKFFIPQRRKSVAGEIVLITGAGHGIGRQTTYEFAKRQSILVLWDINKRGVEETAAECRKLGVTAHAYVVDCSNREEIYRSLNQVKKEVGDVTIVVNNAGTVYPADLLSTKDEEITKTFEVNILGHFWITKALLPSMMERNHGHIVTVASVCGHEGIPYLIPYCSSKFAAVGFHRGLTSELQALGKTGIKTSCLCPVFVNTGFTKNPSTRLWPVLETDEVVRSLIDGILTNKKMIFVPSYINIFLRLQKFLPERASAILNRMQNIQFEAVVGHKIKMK
Test: HSD17b13 NAD(P)H-Glo biochemical assay
Details: for IC50: 50 uM estradiol, 1 mM NAD+, NAD(P)H-Glo luminescence, read-out: HSD17β13 IC50; for inhibition at 10 µM: at 10 uM compound, read-out: HSD17β13 % inhibition at 10 uM
Procedure, shortened: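 Recombinant human HSD17B13 in 20 mM Tris pH7.4 with 0.002% Tween-20 and 0.02% BSA was preincubated with inhibitor for 20 minutes at RT. The reaction ran 3 hours at 37° C with 50 uM estradiol and 1 mM NAD+ (final). NADH formed was detected by NAD(P)H-Glo luminescence after 1 hour at RT.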

SMILES | IC50 [nM] | inhibition at 10 µM [%]
Cn1nc(-c2cc(C(F)(F)F)c(F)c(O)c2F)c2cnc(N3CCCC(O)C3)nc21 (centres unmarked) [Compound 18.05, 1-(3-(2,4-Difluoro-3-hydroxy-5-(trifluoromethyl)phenyl)-1-methyl-1H-pyrazolo[3,4-d]pyrimidin-6-y1)piperidin-3-ol] | < 100 | 
CN(c1cc2c(cn1)c(-c1cc(C(F)(F)F)c(F)c(O)c1F)nn2C)C1CC1 [Compound 9, 3-(6-(Cyclopropyl(methyl)amino)-1-methyl-1H-pyrazolo[4,3-c]pyridin-3-yl)-2,6-difluoro-5-(trifluoromethyl)phenol] | < 100 | 
Cn1nc(-c2cc(C(F)(F)F)c(F)c(O)c2F)c2cnc(N3CCCCC34CCC4)cc21 [Compound 9.59, 2,6-Difluoro-3-(1-methyl-6-(5-azaspiro[3.5]nonan-5-yl)-1H-pyrazolo[4,3-c]pyridin-3-yl)-5-(trifluoromethyl)phenol] | < 100 | 
Cn1nc(-c2cc(C(F)(F)F)c(F)c(O)c2F)c2cnc(N3CCN(C(=O)Nc4ccccc4)CC3)nc21 [Compound 18.116, 4-(3-(2,4-Difluoro-3-hydroxy-5-(trifluoromethyl)phenyl)-1-methyl-1H-pyrazolo[3,4-d]pyrimidin-6-yl)-N-phenylpiperazine-1-carboxamide] | < 100 | 
O=C(NC1CCC1)c1ccc2oc(-c3cc(C(F)(F)F)c(F)c(O)c3F)nc2c1 [Compound 1.14, N-Cyclobutyl-2-(2,4-difluoro-3-hydroxy-5-(trifluoromethyl)phenyl)benzo[d]oxa-zole-5-carboxamide] | < 100 | 
Cn1nc(-c2cc(C(F)(F)F)c(F)c(O)c2F)c2cnc(N(Cc3cccnc3)C3CCOCC3)cc21 [Compound 9.131, 2,6-Difluoro-3-(1-methyl-6-((pyridin-3-ylmethyl)(tetrahydro-2H-pyran-4-yl)amino)-1H-pyrazolo[4,3-c]pyridin-3-yl)-5-(trifluoromethyl)phenol] | < 100 | 
Cn1nc(-c2cc(C(F)(F)F)c(F)c(O)c2F)c2cc(F)c(N3CCOCC34CC4)nc21 [Compound 9.81, 2,6-Difluoro-3-(5-fluoro-1-methyl-6-(7-oxa-4-azaspiro[2.5]octan-4-yl)-1H-pyrazolo[3,4-b]pyridin-3-yl)-5-(trifluoromethyl)phenol] | < 100 | 
Cn1nc(-c2cc(C(F)(F)F)c(F)c(O)c2F)c2cnc(N3CCOC(C4CCOCC4)C3)cc21 (centres unmarked) [Compound 9.133, 2,6-Difluoro-3-(1-methyl-6-(2-(tetrahydro-2H-pyran-4-yl)morpholino)-1H-pyrazolo[4,3-c]pyridin-3-yl)-5-(trifluoromethyl)phenol] | < 100 | 
Cn1nc(-c2cc(C(F)(F)F)c(F)c(O)c2F)c2cnc(NC34CC(C3)C4)nc21 [Compound 9.15, 3-(6-(Bicyclo[1.1.1]pentan-1-ylamino)-1-methyl-1H-pyrazolo[3,4-d]pyrimidin-3-yl)-2,6-difluoro-5-(trifluoromethyl)phenol] | < 100 | 
COC1CCN(c2ncc3c(-c4cc(C(F)(F)F)c(F)c(O)c4F)nn(C)c3n2)CC1 [Compound 18.77, 2,6-Difluoro-3-(6-(4-methoxypiperidin-1-y1)-1-methyl-1H-pyrazolo[3,4-d]pyrimidin-3-yl)-5-(trifluoromethyl)phenol] | < 100 | 
Cn1nc(-c2cc(C(F)(F)F)c(F)c(O)c2F)c2cnc(N3CCOC4(CCCC4)C3)nc21 [Compound 18.106, 2,6-Difluoro-3-(1-methyl-6-(6-oxa-9-azaspiro[4.5]decan-9-yl)-1H-pyrazolo[3,4-d]pyrimidin-3-y1)-5-(trifluoromethyl)phenol] | < 100 | 
Cn1nc(-c2cc(C(F)(F)F)c(F)c(O)c2F)c2cc(F)c(N3CCOCC34CC4)cc21 [Compound 9.121, 2,6-Difluoro-3-(5-fluoro-1-methyl-6-(7-oxa-4-azaspiro[2.5]octan-4-yl)-1H-indazol-3-yl)-5-(trifluoromethyl)phenol] | < 100 | 
COCCn1nc(-c2cc(C(F)(F)F)c(F)c(O)c2F)c2cnc(N3CCOCC34CC4)cc21 [Compound 9.73, 2,6-Difluoro-3-(1-(2-methoxyethyl)-6-(7-oxa-4-azaspiro[2.5]octan-4-yl)-1H-pyrazolo[4,3-c]pyridin-3-yl)-5-(trifluoromethyl)phenol] | < 100 | 
Cn1nc(-c2cc(C(F)(F)F)c(F)c(O)c2F)c2ccc(N3CCOCC34CC4)cc21 [Compound 9.19, 2,6-Difluoro-3-(1-methyl-6-(7-oxa-4-azaspiro[2.5]octan-4-yl)-1H-indazol-3-yl)-5-(trifluoromethyl)phenol] | < 100 | 
Cn1nc(-c2cc(C(F)(F)F)c(F)c(O)c2F)c2cnc(N3CCOC4(CCCC4)C3)cc21 [Compound 9.132, 2,6-Difluoro-3-(1-methyl-6-(6-oxa-9-azaspiro[4.5]decan-9-yl)-1H-pyrazolo[4,3-c]pyridin-3-yl)-5-(trifluoromethyl)phenol] | < 100 | 
Cn1nc(-c2cc(C(F)(F)F)c(F)c(O)c2F)c2cnc(N3CCOCC3C3CCC3)nc21 (centres unmarked) [Compound 18.104, 3-(6-(3-Cyclobutylmorpholino)-1-methyl-1H-pyrazolo[3,4-d]pyrimidin-3-y1)-2,6-difluoro-5-(trifluoromethyl)phenol] | < 100 | 
Cn1nc(-c2cc(C(F)(F)F)c(F)c(O)c2F)c2cnc(N3CCOC(C4CC4)C3)nc21 (centres unmarked) [Compound 18.59, 3-(6-(2-Cyclopropylmorpholino)-1-methyl-1H-pyrazolo[3,4-d]pyrimidin-3-y1)-2,6-difluoro-5-(trifluoromethyl)phenol] | < 100 | 
CN(C(=O)c1ccc2oc(-c3cc(C(F)(F)F)c(F)c(O)c3F)nc2c1)C1CCC1 [Compound 1.15, N-Cyclobutyl-2-(2,4-difluoro-3-hydroxy-5-(trifluoromethyl)phenyl)-N-methylbenzo[d]oxazole-5-carboxamide] | 100 to 1000 | 
Cn1nc(-c2cc(C(F)(F)F)c(F)c(O)c2F)c2cnc(N3CCOC(c4nnn[nH]4)C3)nc21 (centres unmarked) [Compound 18.50, 3-(6-(2-(1H-Tetrazol-5-yl)morpholino)-1-methyl-1H-pyrazolo[3,4-d]pyrimidin-3-y1)-2,6-difluoro-5-(trifluoromethyl)phenol] | 1000 to 30000 | 
Cn1nc(-c2cc(C(F)(F)F)c(F)c(O)c2F)c2cnc(NC3CCC3)cc21 [Compound 9.14, 3-(6-(Cyclobutylamino)-1-methyl-1H-pyrazolo[4,3-c]pyridin-3-yl)-2,6-difluoro-5-(trifluoromethyl)phenol] | < 100 | 
COCC1(N(C)c2ncc3c(-c4cc(C(F)(F)F)c(F)c(O)c4F)nn(C)c3n2)CCC1 [Compound 18.20, 2,6-Difluoro-3-(6-((1-(methoxymethyl)cyclobutyl)(methy 1)amino)-1-methy1-1H-pyrazolo[3,4-d]pyrimidin-3-y1)-5-(trifluoromethyl)phenol] | < 100 | 
Cn1nc(-c2cc(C(F)(F)F)c(F)c(O)c2F)c2cnc(N3CCOCC3c3ccccc3)nc21 (centres unmarked) [Compound 18.46, 2,6-Difluoro-3-(1-methyl-6-(3-phenylmorpholino)-1H-pyrazolo[3,4-d]pyrimidin-3-y1)-5-(trifluoromethyl)phenol] | < 100 | 
Cn1nc(-c2cc(C(F)(F)F)c(F)c(O)c2F)c2cnc(N3CCOC(c4cccnc4)C3)nc21 (centres unmarked) [Compound 18.55, 2,6-Difluoro-3-(1-methyl-6-(2-(pyridin-3-y1)morpholino)-1H-pyrazolo[3,4-d]pyrimidin-3-y1)-5-(trifluoromethyl)phenol] | < 100 | 
Cn1nc(-c2cc(C(F)(F)F)c(F)c(O)c2F)c2cnc(N3CCO[C@@H](c4ccccc4)C3)cc21 [Compound 9.135, (S)-2,6-Difluoro-3-(1-methyl-6-(2-phenylmorpholino)-1H-pyrazolo[4,3-c]pyridin-3-yl)-5-(trifluoromethyl)phenol] | < 100 | 
Cn1nc(-c2cc(C(F)(F)F)c(F)c(O)c2F)c2cnc(N3CC4CC3CN4S(C)(=O)=O)nc21 (centres unmarked) [Compound 18.110, 2,6-Difluoro-3-(1-methyl-6-(5-(methylsulfony1)-2,5-diazabicyclo[2.2.1]heptan-2-y1)-1H-pyrazolo[3,4-d]pyrimidin-3-yl)-5-(trifluoromethyl)phenol] | < 100 | 
Cn1nc(-c2cc(C(F)(F)F)c(F)c(O)c2F)c2cnc(N3CCN(S(C)(=O)=O)CC34CC4)nc21 [Compound 9.122, 2,6-Difluoro-3-(1-methyl-6-(7-(methylsulfonyl)-4,7-diazaspiro[2.5]octan-4-yl)-1H-pyrazolo[3,4-d]pyrimidin-3-yl)-5-(trifluoromethyl)phenol] | < 100 | 
Cn1nc(-c2cccc(O)c2)c2cnc(N3CCN(S(C)(=O)=O)C4(CC4)C3)nc21 [Compound 12.10, 3-(1-Methyl-6-(4-(methylsulfonyl)-4,7-diazaspiro[2.5]octan-7-yl)-1H-pyrazolo[3,4-d]pyrimidin-3-yl)phenol] |  | < 20
Cn1nc(-c2cc(C(F)(F)F)c(F)c(O)c2F)c2cnc(N3CCCOCC3)cc21 [Compound 9.58, 2,6-Difluoro-3-(1-methyl-6-(1,4-oxazepan-4-yl)-1H-pyrazolo[4,3-c]pyridin-3-yl)-5-(trifluoromethyl)phenol] | < 100 | 
CS(=O)(=O)N1CCN(c2ccc3oc(-c4cc(C(F)(F)F)c(F)c(O)n4)nc3c2)CC1 [Compound 7.02, 3-Fluoro-6-(5-(4-(methylsulfonyl)piperazin-1-yl)benzo[d]oxazol-2-yl)-4-(trifluoromethyl)pyridin-2-ol] |  | 40
